For 22 compounds, IC50 results are on record in patent US11325938B2, “CD73 inhibitors” (ORIC Pharmaceuticals, Inc., priority 2018, dated 2022).

The test concerns the target CD73 (Homo sapiens (Human), UniProt P21589). The experiment in a line: Biochemical assay: inhibition of CD73 activity (AMP hydrolysis, Malachite Green readout). The note with it: CD73 0.3208 nM, AMP 15 μM, 25 mM Tris-HCl pH 7.4, RT, absorbance 620 nm. A digest of the protocol: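 Phosphate from AMP hydrolysis (15 μM AMP, 10 min, RT) was detected by Malachite Green absorbance to give IC50s. Enzyme at 320 pM was first exposed 15 min to compounds, dosed from 100 μM in ½-log steps, in Tris pH 7.4 buffer with MgCl2, Brij-35 and BSA.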

Chain of CD73 (P21589 27-574): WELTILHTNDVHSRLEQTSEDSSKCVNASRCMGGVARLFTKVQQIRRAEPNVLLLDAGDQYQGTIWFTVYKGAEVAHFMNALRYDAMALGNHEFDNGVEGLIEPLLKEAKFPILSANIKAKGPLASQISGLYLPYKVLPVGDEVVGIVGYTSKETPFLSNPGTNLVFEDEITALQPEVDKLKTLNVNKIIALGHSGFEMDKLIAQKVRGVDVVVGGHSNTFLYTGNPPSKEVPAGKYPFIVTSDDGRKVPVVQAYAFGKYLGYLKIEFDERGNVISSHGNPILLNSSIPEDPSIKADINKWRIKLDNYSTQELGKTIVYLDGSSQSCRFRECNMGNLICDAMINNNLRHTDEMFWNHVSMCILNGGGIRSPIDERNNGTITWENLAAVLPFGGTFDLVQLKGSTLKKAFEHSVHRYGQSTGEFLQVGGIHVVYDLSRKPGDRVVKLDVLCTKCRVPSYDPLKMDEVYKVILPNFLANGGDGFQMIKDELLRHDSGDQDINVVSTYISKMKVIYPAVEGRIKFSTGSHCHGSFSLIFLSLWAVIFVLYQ

One may read the IC50 as the point on the concentration scale where inhibition reaches its midpoint. Read a low IC50 as greater potency. Consider `C[C@@H](O)COc1nc(NC2CCCC2)c2cnn([C@@H]3O[C@H](COC(CO)(CO)P(=O)(O)O)[C@@H](O)[C@H]3O)c2n1` (racemic) [Example 191, rac-(2-(((2R,3S,4R,5R)-5-(4-(cyclopentylamino)-6-((R)-2-hydroxypropoxy)-1H-pyrazolo[3,4-d]pyrimidin-1-yl)-3,4-dihydroxytetrahydrofuran-2-yl)methoxy)-1,3-dihydroxypropan-2-yl)phosphonic acid], for which the IC50 was no more than 0.1 µM.

Turning to `O=P(O)(O)C(CO)OC[C@H]1O[C@@H](n2cnc3c(NC4CCCC4)nc(Cl)nc32)[C@H](O)[C@@H]1O` (stereo partly drawn) [Example 75, (1-(((2R,3S,4R,5R)-5-(2-chloro-6-(cyclopentylamino)-9H-purin-9-yl)-3,4-dihydroxytetrahydrofuran-2-yl)methoxy)-2-hydroxyethyl)phosphonic acid], the IC50 is no more than 0.1 µM.

In turn, `O=P(O)(O)C(CO)(CO)OC[C@H]1O[C@@H](n2ncc3c(NC4CCC45CCC5)nc(Cl)nc32)[C@H](O)[C@@H]1O` (mixture of isomers) [Example 204, rac-(2-(((2R,3S,4R,5R)-5-(6-chloro-4-(spiro[3.3]heptan-1-ylamino)-1H-pyrazolo[3,4-d]pyrimidin-1-yl)-3,4-dihydroxytetrahydrofuran-2-yl)methoxy)-1,3-dihydroxypropoan-2-yl)phosphonic acid] came in with an IC50 of no more than 0.1 µM.

Turning to `COC[C@](C)(OC[C@H]1O[C@@H](n2ncc3c(NC4CCCC4)nc(Cl)nc32)[C@H](O)[C@@H]1O)P(=O)(O)O` [Example 69, ((R)-2-(((2R,3S,4R,5R)-5-(6-chloro-4-(cyclopentylamino)-1H-pyrazolo[3,4-d]pyrimidin-1-yl)-3,4-dihydroxytetrahydrofuran-2-yl)methoxy)-1-methoxypropan-2-yl)phosphonic acid], the IC50 is no more than 0.1 µM.

In turn, `O=P(O)(O)C(CO)OC[C@H]1O[C@@H](n2ncc3c(N[C@H]4CCc5ccccc54)nc(Cl)nc32)[C@H](O)[C@@H]1O` (stereo partly drawn) [Example 39, (1-(((2R,3S,4R,5R)-5-(6-chloro-4-(((S)-2,3-dihydro-1H-inden-1-yl)amino)-1H-pyrazolo[3,4-d]pyrimidin-1-yl)-3,4-dihydroxytetrahydrofuran-2-yl)methoxy)-2-hydroxyethyl)phosphonic acid] yielded an IC50 of no more than 0.1 µM.

In the case of `C[C@](CO)(OC[C@H]1O[C@@H](n2ncc3c(NC4CCCC4)nc(Cl)nc32)[C@H](O)[C@@H]1O)P(=O)(O)O` [Example 62, ((S)-2-(((2R,3S,4R,5R)-5-(6-chloro-4-(cyclopentylamino)-1H-pyrazolo[3,4-d]pyrimidin-1-yl)-3,4-dihydroxytetrahydrofuran-2-yl)methoxy)-1-hydroxypropan-2-yl)phosphonic acid], the IC50 is no more than 0.1 µM.

Turning to `COC[C@H](OC[C@H]1O[C@@H](n2nnc3c(NC4CCCC4)cc(Cl)nc32)[C@H](O)[C@@H]1O)P(=O)(O)O` [Example 157, ((R)-1-(((2R,3S,4R,5R)-5-(5-chloro-7-(cyclopentylamino)-3H-[1,2,3]triazolo[4,5-b]pyridin-3-yl)-3,4-dihydroxytetrahydrofuran-2-yl)methoxy)-2-methoxyethyl)phosphonic acid], the IC50 was no more than 0.1 µM.

For the compound `C[C@](CO)(OC[C@H]1O[C@@H](n2ncc3c(N[C@@H]4CCc5cc(F)ccc54)nc(Cl)nc32)[C@H](O)[C@@H]1O)P(=O)(O)O` [Example 121, ((S)-2-(((2R,3S,4R,5R)-5-(6-chloro-4-(((R)-5-fluoro-2,3-dihydro-1H-inden-1-yl)amino)-1H-pyrazolo[3,4-d]pyrimidin-1-yl)-3,4-dihydroxytetrahydrofuran-2-yl)methoxy)-1-hydroxypropan-2-yl)phosphonic acid], the IC50 was no more than 0.1 µM.

Consider `CCOC(=O)C(OC[C@H]1O[C@@H](n2ncc3c(NC4CCCC4)nc(Cl)nc32)[C@H](O)[C@@H]1O)P(=O)(O)O` (stereo partly drawn) [Example 1, (1-(((2R,3S,4R,5R)-5-(6-Chloro-4-(cyclopentylamino)-1H-pyrazolo[3,4-d]pyrimidin-1-yl)-3,4-dihydroxytetrahydrofuran-2-yl)methoxy)-2-ethoxy-2-oxoethyl)phosphonic acid], for which the IC50 is no more than 0.1 µM.

On to `N#CC(OC[C@H]1O[C@@H](n2ncc3c(NC4CCCC4)nc(Cl)nc32)[C@H](O)[C@@H]1O)P(=O)(O)O` (stereo partly drawn) [Example 2, ((((2R,3S,4R,5R)-5-(6-Chloro-4-(cyclopentylamino)-1H-pyrazolo[3,4-d]pyrimidin-1-yl)-3,4-dihydroxytetrahydrofuran-2-yl)methoxy)(cyano)methyl)phosphonic acid], for which the IC50 is 0.1 to 1 µM.

Compound `O=P(O)(O)C(CO)OC[C@@H]1C[C@@H](O)[C@H](n2ncc3c(NC4CCCC4)nc(Cl)nc32)O1` (stereo partly drawn) [Example 40, (1-(((2S,4R,5R)-5-(6-chloro-4-(cyclopentylamino)-1H-pyrazolo[3,4-d]pyrimidin-1-yl)-4-hydroxytetrahydrofuran-2-yl)methoxy)-2-hydroxyethyl)phosphonic acid] had an IC50 of no more than 0.1 µM.

`COCC(OC[C@H]1O[C@@H](n2ncc3c(NC4CCCC4)nc(Cl)nc32)[C@H](O)[C@@H]1O)(C(=O)O)P(=O)(O)O` (mixture of isomers) [Example 221, rac-(R)-2-(((2R,3S,4R,5R)-5-(6-chloro-4-(cyclopentylamino)-1H-pyrazolo[3,4-d]pyrimidin-1-yl)-3,4-dihydroxytetrahydrofuran-2-yl)methoxy)-3-methoxy-2-phosphonopropanoic acid] returned an IC50 of no more than 0.1 µM.

In the case of `CC(CCO)(OC[C@H]1O[C@@H](n2ncc3c(NC4CCCC4)nc(Cl)nc32)[C@H](O)[C@@H]1O)P(=O)(O)O` (stereo partly drawn) [Example 56, (2-(((2R,3S,4R,5R)-5-(6-Chloro-4-(cyclopentylamino)-1H-pyrazolo[3,4-d]pyrimidin-1-yl)-3,4-dihydroxytetrahydrofuran-2-yl)methoxy)-4-hydroxybutan-2-yl)phosphonic acid], the IC50 was no more than 0.1 µM.

`CCS(=O)(=O)C[C@](C)(OC[C@H]1O[C@@H](n2ncc3c(NC4CCCC4)nc(Cl)nc32)[C@H](O)[C@@H]1O)P(=O)(O)O` [Example 137, ((R)-2-(((2R,3S,4R,5R)-5-(6-chloro-4-(cyclopentylamino)-1H-pyrazolo[3,4-d]pyrimidin-1-yl)-3,4-dihydroxytetrahydrofuran-2-yl)methoxy)-1-(ethylsulfonyl)propan-2-yl)phosphonic acid] gave an IC50 of no more than 0.1 µM.

The compound `C[C@@H]1CCC[C@@H]1Nc1nc(Cl)nc2c1cnn2[C@@H]1O[C@H](COC(CO)(Cc2nn[nH]n2)P(=O)(O)O)[C@@H](O)[C@H]1O` (mixture of isomers) [Example 209, rac-(2-(((2R,3S,4R,5R)-5-(6-chloro-4-(((1S,2R)-2-methylcyclopentyl)amino)-1H-pyrazolo[3,4-d]pyrimidin-1-yl)-3,4-dihydroxytetrahydrofuran-2-yl)methoxy)-1-hydroxy-3-(2H-tetrazol-5-yl)propan-2-yl)phosphonic acid] gave a half-inhibitory concentration (IC50) of no more than 0.1 µM.

With `O=P(O)(O)C(CO)(CO)OC[C@H]1O[C@H](n2ncc3c(NCc4ccc(Cl)cc4)nc(Cl)nc32)[C@H](O)[C@@H]1O` (racemic) [Example 203, rac-(2-(((2R,3S,4R,5S)-5-(6-chloro-4-((4-chlorobenzyl)amino)-1H-pyrazolo[3,4-d]pyrimidin-1-yl)-3,4-dihydroxytetrahydrofuran-2-yl)methoxy)-1,3-dihydroxypropan-2-yl)phosphonic acid], the IC50 was no more than 0.1 µM.

Take `O=P(O)(O)C(CO)(CO)OC[C@H]1O[C@@H](n2ncc3c(N[C@@H]4CC[C@H]5CCC[C@H]54)nc(Cl)nc32)[C@H](O)[C@@H]1O` (racemic) [Example 164, rac-(2-(((2R,3S,4R,5R)-5-(6-chloro-4-(((1R,3aR,6aR)-octahydropentalen-1-yl)amino)-1H-pyrazolo[3,4-d]pyrimidin-1-yl)-3,4-dihydroxytetrahydrofuran-2-yl)methoxy)-1,3-dihydroxypropan-2-yl)phosphonic acid]: the IC50 is no more than 0.1 µM.

In turn, `O=P(O)(O)[C@@](CO)(Cc1nn[nH]n1)OC[C@H]1O[C@@H](n2ncc3c(NC4CCCC4)nc(Cl)nc32)[C@H](O)[C@@H]1O` [Example 104, ((R)-2-(((2R,3S,4R,5R)-5-(6-chloro-4-(cyclopentylamino)-1H-pyrazolo[3,4-d]pyrimidin-1-yl)-3,4-dihydroxytetrahydrofuran-2-yl)methoxy)-1-hydroxy-3-(2H-tetrazol-5-yl)propan-2-yl)phosphonic acid] came in with an IC50 of no more than 0.1 µM.

In the case of `O=P(O)(O)C(CO)(CCO)OC[C@H]1O[C@@H](n2ncc3c(NC4CCCC4)nc(Br)nc32)[C@H](O)[C@@H]1O` (stereo partly drawn) [Example 37, (2-(((2R,3S,4R,5R)-5-(6-bromo-4-(cyclopentylamino)-1H-pyrazolo[3,4-d]pyrimidin-1-yl)-3,4-dihydroxytetrahydrofuran-2-yl)methoxy)-1,4-dihydrobutan-2-yl)phosphonic acid], the IC50 is no more than 0.1 µM.

`C[C@](CO)(OC[C@H]1O[C@@H](n2ncc3c(NC4CCCC4)nc(CO)nc32)[C@H](O)[C@@H]1O)P(=O)(O)O` [Example 127, ((S)-2-(((2R,3S,4R,5R)-5-(4-(cyclopentylamino)-6-(hydroxymethyl)-1H-pyrazolo[3,4-d]pyrimidin-1-yl)-3,4-dihydroxytetrahydrofuran-2-yl)methoxy)-1-hydroxypropan-2-yl)phosphonic acid]: the IC50 was no more than 0.1 µM.

`C[C@](CO)(OC[C@H]1O[C@@H](n2ncc3c(NC4CC5(CCC5)C4)nc(Cl)nc32)[C@H](O)[C@@H]1O)P(=O)(O)O` [Example 123, ((S)-2-(((2R,3S,4R,5R)-5-(6-chloro-4-(spiro[3.3]heptan-2-ylamino)-1H-pyrazolo[3,4-d]pyrimidin-1-yl)-3,4-dihydroxytetrahydrofuran-2-yl)methoxy)-1-hydroxypropan-2-yl)phosphonic acid] yielded an IC50 of no more than 0.1 µM.

Take `COCC(OC[C@H]1O[C@@H](n2ncc3c(NC4CCCC4)nc(Cl)nc32)[C@H](O)[C@@H]1O)P(=O)(O)O` (stereo partly drawn) [Example 31, (1-(((2R,3S,4R,5R)-5-(6-chloro-4-(cyclopentylamino)-1H-pyrazolo[3,4-d]pyrimidin-1-yl)-3,4-dihydroxytetrahydrofuran-2-yl)methoxy)-2-methoxyethyl)phosphonic acid]: the IC50 is no more than 0.1 µM.
